Experimental data published in patent US7541032B2, “Antigen uptake receptor for Candida albicans on dendritic cells” (priority 2002, dated 2009).

What was measured:
DC-SIGN [1] = biological target: T1, DC-SIGN (Homo sapiens, UniProt Q9NNX6); assay: Binding of conidiae and hyphae of other Candida strains/species and Aspergillus fumigatus to K-SIGN cells; assay type: cell-based
T1 construct: expressed in transfected cells
T1 sequence (Q9NNX6 1-404): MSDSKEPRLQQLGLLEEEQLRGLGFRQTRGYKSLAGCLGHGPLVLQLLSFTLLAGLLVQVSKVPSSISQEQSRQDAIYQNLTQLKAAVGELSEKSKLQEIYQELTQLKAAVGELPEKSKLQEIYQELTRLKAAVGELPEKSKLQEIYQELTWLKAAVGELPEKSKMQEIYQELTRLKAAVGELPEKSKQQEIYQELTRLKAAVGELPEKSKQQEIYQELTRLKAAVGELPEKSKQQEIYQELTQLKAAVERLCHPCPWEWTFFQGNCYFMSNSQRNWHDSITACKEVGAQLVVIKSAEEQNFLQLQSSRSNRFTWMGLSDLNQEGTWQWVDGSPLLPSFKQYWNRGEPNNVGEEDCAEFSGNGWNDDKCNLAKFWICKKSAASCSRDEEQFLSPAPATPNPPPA
Protocol: (§1) DC or K562 transfected cells were stained with anti-CD45-APC prior to exposure to FITC labeled live or heat inactivated Candida. DC or K562 cells expressing DC-SIGN or ALCAM (control) were or were not preincubated for 10 minutes at room temperature with mannan (300 μg/mL), mannose (100 mM), facose (100 mM), EGTA (5 mM), or a mixture of AZN-D1 and AZN-D3 (20 μg/mL), in 20 mM Tris pH 8.0, containing 150 mM NaCl, 1 mM CaCl2, 2 mM MgCl2, and 1% BSA (TSA buffer) or, when EGTA was used, in PBS. Subsequently, FITC labeled Candida were resuspended to the appropriate concentrations either in TSA or PBS and added in various cell/C. albicans ratios. After incubation, cell-Candida conjugates were analyzed by flow cytometry, and the relative difference in mean fluorescence intensity of the double labeled events compared with that of control cells was calculated. Cells were labeled with anti-CD45APC to discriminate cells binding FITC-labeled yeast particles from yeast aggregates.
Further studies were performed as above but using other strains or species of yeast and also comparing binding of the conidiae versus binding of the hyphal form of the organism. […] These are clinical strains isolated from patients. It is seen that the conidiae or single-celled form of the yeast bind to DC-SIGN better than do the hyphae. […]

[2] = tested on: immature dendritic cells (imDC); assay: Binding of C. albicans to immature monocyte-derived dendritic cells in the presence of blocking agents, flow cytometry; assay type: cell-based, human; settings: for Inhibition of binding of Candida to imDC at ratios 1:2, 1:5 and 1:10 (FIG. 3D): imDC:C. albicans 1:2, 1:5, 1:10; for Inhibition of imDC/Candida binding (FIG. 5): panel of possible inhibitors, buffer TSA as control
Protocol: (§2) Immature dendritic cells (imDC) were generated from human peripheral blood monocytes as described previously (Vissers et al., 2001). Briefly, monocytes were isolated by adherence to plastic and cultured in the presence of IL-4 (500 U/mL) and GM-CSF (800 U/mL) for 6-7 days. K562 transfectants either expressing DC-SIGN or ALCAM were generated by transfection of K562 cells with 10 μg of plasmid by electroporation as described previously (Geijtenbeek et al., 2000b; Nelissen et al., 2000). Positive cells were sorted several times to obtain stable transfectants with similar expression levels of DC-SIGN.
(§3) Labeling of Candida cells was performed as follows: viable or heat killed (60 minutes at 56° C. or 30 minutes at 100° C.) yeast cells were resuspended to 2×10^8/mL in 0.1 mg/mL FITC in 0.05 M carbonate-bicarbonate buffer (pH 9.5). After incubation for 15 minutes at room temperature in the dark, FITC-labeled Candida cells were washed twice in PBS containing 1% BSA (PBA buffer) and analyzed by flow cytometry.
as §1
In an attempt to establish the contribution of both the mannose receptor and DC-SIGN, immature DC were incubated with specific inhibitors before interacting with C. albicans. Immature monocyte derived dendritic cells (50×10^3), which were CD45APC labeled, were incubated with heat-inactivated Candida (500×10^3) in the absence or presence of AZN-D1 and AZN-D3, anti-DC-SIGN mAb (20 μg/mL each), mannose (100 mM), and EGTA (5 mM).

immature DC = assay: Phagocytosis of FITC-labeled Candida by immature DC, confocal microscopy; assay type: cell-based, human; settings: 60 minutes at 37° C.
Protocol: Immature DC (5×10^5) were incubated with unopsonized live FITC-labeled Candida cells (2.5×10^6) in a total volume of 500 μL at 37° C. in a water bath with orbital shaking at 150 rpm for various periods of time. At the end of the incubation period, the DC binding Candida are separated from unbound Candida by a Ficoll gradient.
The samples were then adhered on poly-L-lysine coated glass coverslips, fixed in 1% paraformaldehyde in PBS for 15 minutes at room temperature, and permeabilized in cold methanol for 5 minutes on ice. After a blocking step in PBS/3% BSA for 60 minutes at room temperature, cells were labeled with mAb (10 μg/mL in PBS/3% BSA) for 60 minutes at room temperature and subsequently incubated with Cy5-conjugated Goat-anti-Mouse F(ab′)2 fragments for 30 minutes at room temperature. Finally, the anti-bleach reagent Mowiol was added, and samples were analyzed using a MRC1024 confocal microscope (Bio-Rad).
It was recently shown that DC-SIGN is an antigen uptake receptor, facilitating phagocytosis within minutes (Engering et al., 2002). In order to determine whether DC-SIGN contributes also to the internalization of C. albicans by immature DC, experiments were performed allowing DC to interact with FITC-labeled Candida for 60 minutes at 37° C. to allow phagocytosis. […]

DC-SIGN [3] = biological target: T1, DC-SIGN; assay: Binding of FITC-labeled C. albicans to K562 transfectants expressing DC-SIGN (K-SIGN), flow cytometry; assay type: cell-based; settings: for Inhibition of binding of C. albicans to K562 cells transfected with wild-type DC-SIGN (FIG. 1F): K562 wild-type DC-SIGN transfectants
Protocol: as §2, §3, §1
The erythroleukemic cell line K562 transfectants stably expressing DC-SIGN (K-SIGN) (Geijtenbeek et al., 2000a) were used to investigate the potential of C. albicans to bind DC-SIGN in the absence of any other known C. albicans, receptors. Binding to ICAM-3 fluorescent beads was used as a positive control for DC-SIGN function. […] The monoclonal antibodies AZN-D1 and AZN-L50 were used to detect DC-SIGN and ALCAM, respectively. The K562 transfectants stably express DC-SIGN and ALCAM, (FIGS. 1A-1 through 1A-3) with expression levels similar to that observed previously (Geijtenbeek et al., 2000a; Nelissen et al., 2000).
Transfectant cells were labeled with CD45APC to discriminate cells binding FITC labeled yeast from yeast aggregates. […]

[4] = biological target: T2, Activated Leukocyte Cell Adhesion Molecule ALCAM (UniProt Q13740 28-583, limits assumed); assay: fluorescent beads adhesion assay, flow cytometry, K562 transfectants
T2 construct: whole, on cells; also called K-ALCAM (K562 cells transfected with ALCAM)
T2 sequence (looked up): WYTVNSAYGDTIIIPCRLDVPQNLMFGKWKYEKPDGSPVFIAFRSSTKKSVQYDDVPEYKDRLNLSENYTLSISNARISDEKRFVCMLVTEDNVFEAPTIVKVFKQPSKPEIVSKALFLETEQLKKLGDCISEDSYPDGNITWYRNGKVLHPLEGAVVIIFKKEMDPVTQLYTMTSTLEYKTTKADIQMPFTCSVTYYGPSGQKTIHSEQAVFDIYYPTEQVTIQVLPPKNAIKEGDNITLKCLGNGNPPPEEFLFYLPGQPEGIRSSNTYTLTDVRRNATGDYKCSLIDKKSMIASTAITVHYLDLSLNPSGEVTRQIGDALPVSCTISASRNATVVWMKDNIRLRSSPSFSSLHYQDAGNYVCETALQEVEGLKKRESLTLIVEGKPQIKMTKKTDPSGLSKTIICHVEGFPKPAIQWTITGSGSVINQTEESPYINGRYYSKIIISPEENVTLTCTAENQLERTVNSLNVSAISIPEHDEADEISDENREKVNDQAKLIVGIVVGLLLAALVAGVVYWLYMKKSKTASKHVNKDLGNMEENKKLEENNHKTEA
Protocol: In inhibition studies, the bead adhesion assay was performed in the presence of 0.3 mg/mL mannan, 5 mM EGTA, or 20 μg/mL antibodies against DC-SIGN or ALCAM.
The erythroleukemic cell line K562 transfectants stably expressing DC-SIGN (K-SIGN) (Geijtenbeek et al., 2000a) were used to investigate the potential of *C. albicans* to bind DC-SIGN in the absence of any other known *C. albicans*, receptors.

O=C(O)CN(CCN(CC(=O)O)CC(=O)O)CC(=O)O [EDTA]
Inhibition of binding of various Candida species and Aspergillus fumigatus to K-SIGN cells (FIGS. 8A-F) (DC-SIGN [1]; conidiae and hyphae, all cases except possibly C. tropicalis and C. parapsilosis (very low binding)): inhibited

O=C(O)CN(CCOCCOCCN(CC(=O)O)CC(=O)O)CC(=O)O [EGTA]
Inhibition of binding of conidiae and hyphae to K-SIGN cells (FIG. 6) (DC-SIGN [1]; C. albicans strains V13-12, V15-31, V18-17, C. dubliniensis strains V18-13, 4247, 3588): inhibited | Blocking of binding of C. albicans to immature DC, in words (FIG. 3B) ([2]; EGTA 5 mM, heat-inactivated Candida): most effective blocking agent | Inhibition of binding of Candida to imDC at ratios 1:2, 1:5 and 1:10 (FIG. 3D) [2]: largely eliminated binding | Inhibition of imDC/Candida binding (FIG. 5) [2]: inhibited binding to a large degree | Blocking of phagocytosis of Candida by immature DC (immature DC): almost completely blocked phagocytosis | Inhibition of binding of C. albicans by K-SIGN (FIG. 1C) (DC-SIGN [3]; AZN-D1 20 μg/mL, EGTA 5 mM): abrogates binding | Inhibition of binding of C. albicans to K562 cells transfected with wild-type DC-SIGN (FIG. 1F) (DC-SIGN [3]): prevented the binding | Inhibition of binding of live and heat-killed (56° C. or 100° C.) yeast forms of C. albicans by DC-SIGN (FIG. 2) (DC-SIGN [3]; K-SIGN, live and heat-inactivated yeast): inhibited

C[C@H](O)[C@@H](O)[C@@H](O)[C@H](O)C=O [fucose, L-fucose]
Inhibition of binding of Candida to imDC at ratios 1:2, 1:5 and 1:10 (FIG. 3D) [2]: greater inhibitory effects | Inhibition of imDC/Candida binding (FIG. 5) [2]: inhibited binding to a large degree | Inhibition of binding of C. albicans to K562 cells transfected with wild-type DC-SIGN (FIG. 1F) (DC-SIGN [3]): some inhibition

Mannan
Inhibition of binding of Candida to imDC at ratios 1:2, 1:5 and 1:10 (FIG. 3D) [2]: did not block the binding | Inhibition of imDC/Candida binding (FIG. 5) [2]: only minor effects

laminarin
Blocking of C. albicans binding on immature monocyte derived DC (β2-integrin / Dectin-1 interference) [2]: did not show any block | Inhibition of imDC/Candida binding (FIG. 5) [2]: only minor effects

β-1,2-oligomannoside
Inhibition of imDC/Candida binding (FIG. 5) [2]: greatly inhibited binding

B1: ICAM-3-Fc (Fc fusion, UniProt P32942 30-485, looked up)
chain: QEFLLRVEPQNPVLSAGGSLFVNCSTDCPSSEKIALETSLSKELVASGMGWAAFNLSNVTGNSRILCSVYCNGSQITGSSNITVYRLPERVELAPLPPWQPVGQNFTLRCQVEDGSPRTSLTVVLLRWEEELSRQPAVEEPAEVTATVLASRDDHGAPFSCRTELDMQPQGLGLFVNTSAPRQLRTFVLPVTPPRLVAPRFLEVETSWPVDCTLDGLFPASEAQVYLALGDQMLNATVMNHGDTLTATATATARADQEGAREIVCNVTLGGERREARENLTVFSFLGPIVNLSEPTAHEGSTVTVSCMAGARVQVTLDGVPAAAPGQPAQLQLNATESDDGRSFFCSATLEVDGEFLHRNSSVQLRVLYGPKIDRATCPQHLKWKDKTRHVLQCQARGNPYPELRCLKEGSSREVPVGIPFFVNVTHNGTYQCQASSSRGKYTLVVVMDIEAGSSH
notes: Coated on carboxylate-modified TransFluorSpheres; also called ICAM-3-Fc coated beads; ICAM-3 fluorescent beads; not shown: Fc part
binding result [4]: no binding
